What was measured:
[1] = target: Protein kinase C theta type (Homo sapiens) (UniProt Q04759); assay: Inhibition of T7 bacteriophage fused human PRKCQ at 10 uM by KINOMEscan analysis relative to control
[2] = target: Phosphorylase b kinase gamma catalytic chain, liver/testis isoform (Homo sapiens) (UniProt P15735); assay: Inhibition of T7 bacteriophage fused human PHKG2 at 10 uM by KINOMEscan analysis relative to control
[3] = target: Mitogen-activated protein kinase kinase kinase 11 (Homo sapiens) (UniProt Q16584); assay: Inhibition of T7 bacteriophage fused human MLK3 at 10 uM by KINOMEscan analysis relative to control
[4] = test system: Phosphatidylinositol 4,5-bisphosphate 3-kinase catalytic subunit alpha isoform (Homo sapiens), P42336 [E545A]; assay: Inhibition of T7 bacteriophage fused human PIK3CA E545A mutant at 10 uM by KINOMEscan analysis relative to control
Sequence of Phosphatidylinositol 4,5-bisphosphate 3-kinase catalytic subunit alpha isoform (Homo sapiens), P42336 [E545A] (P42336 whole entry E545A, the tested form may be a part, canonical isoform): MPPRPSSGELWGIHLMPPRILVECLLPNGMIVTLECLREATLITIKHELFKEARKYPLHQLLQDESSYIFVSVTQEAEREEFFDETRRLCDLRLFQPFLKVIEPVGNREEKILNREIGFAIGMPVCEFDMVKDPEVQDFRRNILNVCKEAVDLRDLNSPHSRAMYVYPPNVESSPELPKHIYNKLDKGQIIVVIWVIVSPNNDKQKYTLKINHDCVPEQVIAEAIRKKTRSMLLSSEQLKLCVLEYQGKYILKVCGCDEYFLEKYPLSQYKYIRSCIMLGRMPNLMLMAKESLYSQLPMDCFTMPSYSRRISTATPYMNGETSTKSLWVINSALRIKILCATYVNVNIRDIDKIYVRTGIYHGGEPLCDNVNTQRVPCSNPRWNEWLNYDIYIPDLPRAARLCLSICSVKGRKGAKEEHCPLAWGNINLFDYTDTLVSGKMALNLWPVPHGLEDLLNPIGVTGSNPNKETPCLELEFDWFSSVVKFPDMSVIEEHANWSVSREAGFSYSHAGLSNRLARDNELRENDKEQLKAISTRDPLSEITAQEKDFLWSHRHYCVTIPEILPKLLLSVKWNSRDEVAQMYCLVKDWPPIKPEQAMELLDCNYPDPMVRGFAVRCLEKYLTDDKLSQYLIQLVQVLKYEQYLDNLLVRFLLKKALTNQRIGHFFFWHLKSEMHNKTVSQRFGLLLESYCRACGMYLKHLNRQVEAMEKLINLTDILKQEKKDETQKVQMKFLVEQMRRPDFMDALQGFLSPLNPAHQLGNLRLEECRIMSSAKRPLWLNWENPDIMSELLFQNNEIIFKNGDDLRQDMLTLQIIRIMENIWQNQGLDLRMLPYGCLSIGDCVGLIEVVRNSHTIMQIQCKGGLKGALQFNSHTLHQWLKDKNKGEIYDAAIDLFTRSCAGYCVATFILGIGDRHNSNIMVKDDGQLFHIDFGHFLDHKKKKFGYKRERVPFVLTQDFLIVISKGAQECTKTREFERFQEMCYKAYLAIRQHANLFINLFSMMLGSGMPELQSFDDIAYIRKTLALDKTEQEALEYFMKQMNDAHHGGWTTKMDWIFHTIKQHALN

[5] = target: Phosphatidylinositol 4,5-bisphosphate 3-kinase catalytic subunit alpha isoform (Homo sapiens) (UniProt P42336); assay: Inhibition of T7 bacteriophage fused human PIK3CA at 10 uM by KINOMEscan analysis relative to control
[6] = target: Cyclin-dependent kinase 3 (Homo sapiens) (UniProt Q00526); assay: Inhibition of T7 bacteriophage fused human CDK3 at 10 uM by KINOMEscan analysis relative to control
[7] = target: G protein-coupled receptor kinase 4 (Homo sapiens) (UniProt P32298); assay: Inhibition of T7 bacteriophage fused human GRK4 at 10 uM by KINOMEscan analysis relative to control; values are per cent of control
[8] = target: Epithelial discoidin domain-containing receptor 1 (Homo sapiens) (UniProt Q08345); assay: Inhibition of T7 bacteriophage fused human DDR1 at 10 uM by KINOMEscan analysis relative to control
[9] = target: Platelet-derived growth factor receptor beta (Homo sapiens) (UniProt P09619); assay: Inhibition of T7 bacteriophage fused human PDGFRB at 10 uM by KINOMEscan analysis relative to control
[10] = target: Serine/threonine-protein kinase DCLK2 (Homo sapiens) (UniProt Q8N568); assay: Inhibition of T7 bacteriophage fused human DCAMKL2 at 10 uM by KINOMEscan analysis relative to control
[11] = test system: Epidermal growth factor receptor (Homo sapiens), P00533 [L858R]; assay: Inhibition of T7 bacteriophage fused human EGFR L858R mutant at 10 uM by KINOMEscan analysis relative to control; values are per cent of control
[12] = target: Calcium/calmodulin-dependent protein kinase kinase 2 (Homo sapiens) (UniProt Q96RR4); assay: Inhibition of T7 bacteriophage fused human CAMKK2 at 10 uM by KINOMEscan analysis relative to control
[13] = target: Platelet-derived growth factor receptor alpha (Homo sapiens) (UniProt P16234); assay: Inhibition of T7 bacteriophage fused human PDGFRA at 10 uM by KINOMEscan analysis relative to control
Sequence of Platelet-derived growth factor receptor alpha (Homo sapiens) (P16234 whole entry, the tested form may be a part): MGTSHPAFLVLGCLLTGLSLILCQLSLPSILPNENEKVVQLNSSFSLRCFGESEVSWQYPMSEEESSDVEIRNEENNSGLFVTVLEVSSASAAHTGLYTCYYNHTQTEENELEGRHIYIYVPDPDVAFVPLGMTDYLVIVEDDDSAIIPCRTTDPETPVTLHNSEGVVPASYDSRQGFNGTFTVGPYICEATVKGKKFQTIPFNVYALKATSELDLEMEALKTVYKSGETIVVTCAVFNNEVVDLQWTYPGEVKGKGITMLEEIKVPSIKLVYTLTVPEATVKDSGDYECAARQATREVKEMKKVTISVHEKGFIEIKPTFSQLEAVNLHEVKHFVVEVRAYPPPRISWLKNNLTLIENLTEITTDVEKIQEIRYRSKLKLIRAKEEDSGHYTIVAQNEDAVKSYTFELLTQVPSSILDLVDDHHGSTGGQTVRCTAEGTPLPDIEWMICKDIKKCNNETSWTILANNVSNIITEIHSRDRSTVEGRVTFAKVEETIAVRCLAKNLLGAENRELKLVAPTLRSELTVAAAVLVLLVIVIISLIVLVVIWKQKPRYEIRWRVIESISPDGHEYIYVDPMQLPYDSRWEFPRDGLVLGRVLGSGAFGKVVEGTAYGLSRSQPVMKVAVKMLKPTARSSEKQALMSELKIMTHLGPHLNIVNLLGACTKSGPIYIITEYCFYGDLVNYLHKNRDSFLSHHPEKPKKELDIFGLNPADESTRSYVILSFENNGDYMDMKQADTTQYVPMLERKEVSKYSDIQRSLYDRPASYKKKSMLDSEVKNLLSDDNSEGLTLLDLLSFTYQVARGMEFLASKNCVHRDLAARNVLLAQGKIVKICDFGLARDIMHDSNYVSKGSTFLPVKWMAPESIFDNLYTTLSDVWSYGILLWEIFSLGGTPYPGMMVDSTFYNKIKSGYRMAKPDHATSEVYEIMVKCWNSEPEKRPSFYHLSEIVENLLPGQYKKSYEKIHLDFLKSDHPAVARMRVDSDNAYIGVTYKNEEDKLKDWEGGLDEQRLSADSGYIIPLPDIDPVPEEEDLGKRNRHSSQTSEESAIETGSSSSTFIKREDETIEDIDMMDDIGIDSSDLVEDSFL

[14] = target: Dual specificity tyrosine-phosphorylation-regulated kinase 1B (Homo sapiens) (UniProt Q9Y463); assay: Inhibition of T7 bacteriophage fused human DYRK1B at 10 uM by KINOMEscan analysis relative to control; values are per cent of control
[15] = target: Ribosomal protein S6 kinase alpha-2 (Homo sapiens) (UniProt Q15349); assay: Inhibition of T7 bacteriophage fused human C-terminal RSK3 Kinase domain-2 at 10 uM by KINOMEscan analysis relative to control
Sequence of Ribosomal protein S6 kinase alpha-2 (Homo sapiens) (Q15349 whole entry, the tested form may be a part): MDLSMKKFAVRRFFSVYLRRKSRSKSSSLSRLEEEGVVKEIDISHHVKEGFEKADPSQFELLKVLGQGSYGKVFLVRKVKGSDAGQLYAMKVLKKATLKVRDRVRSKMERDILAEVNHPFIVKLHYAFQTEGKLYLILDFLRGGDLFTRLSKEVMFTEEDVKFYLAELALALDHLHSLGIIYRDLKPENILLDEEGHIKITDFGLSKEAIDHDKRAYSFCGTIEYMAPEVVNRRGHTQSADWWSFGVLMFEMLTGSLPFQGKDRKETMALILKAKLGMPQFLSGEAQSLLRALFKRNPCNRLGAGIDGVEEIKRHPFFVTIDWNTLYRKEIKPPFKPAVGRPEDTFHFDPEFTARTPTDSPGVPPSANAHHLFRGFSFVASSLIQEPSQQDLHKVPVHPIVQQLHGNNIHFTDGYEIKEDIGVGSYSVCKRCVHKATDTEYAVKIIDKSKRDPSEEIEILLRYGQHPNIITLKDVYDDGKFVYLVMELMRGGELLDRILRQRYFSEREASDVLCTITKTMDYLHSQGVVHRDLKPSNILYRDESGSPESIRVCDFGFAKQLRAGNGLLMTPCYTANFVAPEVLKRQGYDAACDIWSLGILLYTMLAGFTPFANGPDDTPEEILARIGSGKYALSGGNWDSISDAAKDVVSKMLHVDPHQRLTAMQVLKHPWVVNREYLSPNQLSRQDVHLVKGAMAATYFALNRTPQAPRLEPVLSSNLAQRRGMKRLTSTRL

[16] = target: Cyclin-G-associated kinase (Homo sapiens) (UniProt O14976); assay: Inhibition of T7 bacteriophage fused human GAK at 10 uM by KINOMEscan analysis relative to control; values are per cent of control
[17] = test system: Tyrosine-protein kinase ABL1 (Homo sapiens), P00519 [Q252H]; assay: Inhibition of T7 bacteriophage fused human phosphorylated ABL1 Q252H mutant at 10 uM by KINOMEscan analysis relative to control
[18] = target: Muscle, skeletal receptor tyrosine-protein kinase (Homo sapiens) (UniProt O15146); assay: Inhibition of T7 bacteriophage fused human MUSK at 10 uM by KINOMEscan analysis relative to control; values are per cent of control
[19] = target: Calcium/calmodulin-dependent protein kinase type II subunit gamma (Homo sapiens) (UniProt Q13555); assay: Inhibition of T7 bacteriophage fused human CAMK2G at 10 uM by KINOMEscan analysis relative to control
[20] = target: Serine/threonine-protein kinase MARK2 (Homo sapiens) (UniProt Q7KZI7); assay: Inhibition of T7 bacteriophage fused human MARK2 at 10 uM by KINOMEscan analysis relative to control
[21] = target: Myotonin-protein kinase (Homo sapiens) (UniProt Q09013); assay: Inhibition of T7 bacteriophage fused human DMPK at 10 uM by KINOMEscan analysis relative to control
[22] = target: Receptor tyrosine-protein kinase erbB-3 (Homo sapiens) (UniProt P21860); assay: Inhibition of T7 bacteriophage fused human ERBB3 at 10 uM by KINOMEscan analysis relative to control
Sequence of Receptor tyrosine-protein kinase erbB-3 (Homo sapiens) (P21860 whole entry, the tested form may be a part): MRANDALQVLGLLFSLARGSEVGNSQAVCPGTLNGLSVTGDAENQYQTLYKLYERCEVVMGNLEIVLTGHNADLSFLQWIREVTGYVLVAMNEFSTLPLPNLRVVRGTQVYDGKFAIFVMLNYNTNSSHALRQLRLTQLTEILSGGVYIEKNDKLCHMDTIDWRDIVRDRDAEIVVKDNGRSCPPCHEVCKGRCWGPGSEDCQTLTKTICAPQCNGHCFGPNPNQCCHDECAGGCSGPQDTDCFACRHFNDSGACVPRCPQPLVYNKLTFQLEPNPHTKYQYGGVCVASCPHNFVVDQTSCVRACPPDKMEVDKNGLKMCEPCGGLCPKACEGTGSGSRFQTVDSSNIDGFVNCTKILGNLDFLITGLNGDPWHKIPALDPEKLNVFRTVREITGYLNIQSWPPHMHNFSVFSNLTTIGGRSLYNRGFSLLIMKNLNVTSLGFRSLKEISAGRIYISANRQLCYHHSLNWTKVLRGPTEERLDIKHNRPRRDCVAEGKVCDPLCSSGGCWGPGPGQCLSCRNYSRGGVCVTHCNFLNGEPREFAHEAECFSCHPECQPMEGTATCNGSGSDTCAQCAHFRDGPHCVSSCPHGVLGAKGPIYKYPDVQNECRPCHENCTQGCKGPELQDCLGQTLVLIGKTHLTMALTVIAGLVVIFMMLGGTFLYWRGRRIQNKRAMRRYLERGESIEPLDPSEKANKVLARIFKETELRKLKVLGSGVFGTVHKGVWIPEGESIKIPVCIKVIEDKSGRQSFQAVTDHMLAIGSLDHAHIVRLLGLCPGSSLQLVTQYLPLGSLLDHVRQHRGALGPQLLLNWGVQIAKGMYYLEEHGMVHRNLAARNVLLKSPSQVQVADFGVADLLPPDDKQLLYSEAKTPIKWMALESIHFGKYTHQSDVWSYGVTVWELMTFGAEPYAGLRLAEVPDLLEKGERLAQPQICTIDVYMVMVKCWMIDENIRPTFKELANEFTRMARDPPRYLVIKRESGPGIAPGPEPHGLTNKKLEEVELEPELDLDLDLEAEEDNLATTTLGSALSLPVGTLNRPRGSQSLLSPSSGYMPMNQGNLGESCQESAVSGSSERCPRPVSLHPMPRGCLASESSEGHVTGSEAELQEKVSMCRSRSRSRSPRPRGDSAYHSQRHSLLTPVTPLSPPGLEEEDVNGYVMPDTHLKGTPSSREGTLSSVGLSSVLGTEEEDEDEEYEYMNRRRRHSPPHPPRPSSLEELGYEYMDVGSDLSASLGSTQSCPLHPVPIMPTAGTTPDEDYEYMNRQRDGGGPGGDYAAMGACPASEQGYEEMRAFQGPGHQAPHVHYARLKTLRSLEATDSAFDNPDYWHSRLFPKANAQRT

[23] = target: Calcium/calmodulin-dependent protein kinase type IV (Homo sapiens) (UniProt Q16566); assay: Inhibition of T7 bacteriophage fused human CAMK4 at 10 uM by KINOMEscan analysis relative to control
[24] = target: Serine/threonine-protein kinase PLK3 (Homo sapiens) (UniProt Q9H4B4); assay: Inhibition of T7 bacteriophage fused human PLK3 at 10 uM by KINOMEscan analysis relative to control
[25] = test system: Epidermal growth factor receptor (Homo sapiens), P00533 [UNDEFINED MUTATION]; assay: Inhibition of T7 bacteriophage fused human EGFR L747/T751del/Sins mutant at 10 uM by KINOMEscan analysis relative to control
[26] = target: Serine/threonine-protein kinase MRCK beta (Homo sapiens) (UniProt Q9Y5S2); assay: Inhibition of T7 bacteriophage fused human MRCKB at 10 uM by KINOMEscan analysis relative to control
[27] = target: Dual specificity tyrosine-phosphorylation-regulated kinase 1A (Homo sapiens) (UniProt Q13627); assay: Inhibition of T7 bacteriophage fused human DYRK1A at 10 uM by KINOMEscan analysis relative to control; values are per cent of control
[28] = test system: Epidermal growth factor receptor (Homo sapiens), P00533 [L858R,T790M]; assay: Inhibition of T7 bacteriophage fused human EGFR L858R/T790M mutant at 10 uM by KINOMEscan analysis relative to control
[29] = target: Phosphatidylinositol 5-phosphate 4-kinase type-2 gamma (Homo sapiens) (UniProt Q8TBX8); assay: Inhibition of PIP4K2C ATP labeling site harboring TLVIkEVSSEDIADMHSNLSNYHQYIVK in human PC-3 cell lysate at 10 uM by KiNativ profiling analysis relative to control; format: subcellular
Sequence of Phosphatidylinositol 5-phosphate 4-kinase type-2 gamma (Homo sapiens) (Q8TBX8 whole entry): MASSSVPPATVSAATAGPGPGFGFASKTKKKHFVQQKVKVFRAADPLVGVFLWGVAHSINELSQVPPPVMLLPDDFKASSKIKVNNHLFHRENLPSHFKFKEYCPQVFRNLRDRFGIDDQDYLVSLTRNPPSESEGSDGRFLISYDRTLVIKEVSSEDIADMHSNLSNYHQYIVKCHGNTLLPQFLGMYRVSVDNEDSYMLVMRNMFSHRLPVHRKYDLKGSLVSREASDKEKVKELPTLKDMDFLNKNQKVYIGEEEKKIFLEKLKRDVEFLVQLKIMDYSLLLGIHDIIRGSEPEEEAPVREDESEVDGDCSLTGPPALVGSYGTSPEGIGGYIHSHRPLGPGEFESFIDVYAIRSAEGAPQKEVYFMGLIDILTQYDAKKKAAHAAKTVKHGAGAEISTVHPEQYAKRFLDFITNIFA

Sequence of Phosphorylase b kinase gamma catalytic chain, liver/testis isoform (Homo sapiens) (P15735 whole entry, the tested form may be a part, canonical isoform): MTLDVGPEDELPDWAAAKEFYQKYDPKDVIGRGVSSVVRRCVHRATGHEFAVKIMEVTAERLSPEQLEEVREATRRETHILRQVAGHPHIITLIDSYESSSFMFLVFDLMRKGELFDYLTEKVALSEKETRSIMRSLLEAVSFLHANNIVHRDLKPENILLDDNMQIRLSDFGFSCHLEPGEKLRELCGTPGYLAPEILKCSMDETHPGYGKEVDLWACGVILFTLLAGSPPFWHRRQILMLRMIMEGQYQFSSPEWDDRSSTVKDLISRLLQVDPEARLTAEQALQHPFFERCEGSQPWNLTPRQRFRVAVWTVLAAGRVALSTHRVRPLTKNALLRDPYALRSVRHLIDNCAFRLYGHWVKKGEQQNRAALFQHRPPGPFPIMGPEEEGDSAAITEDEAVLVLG

COc1cc(N2CCC(N3CCN(C)CC3)CC2)ccc1Nc1ncc2c(n1)N(C)c1ccccc1C(=O)N2C
inhibition [1]: 100% | inhibition [2]: 33% | inhibition [3]: 100% | inhibition [4]: 98% | inhibition [5]: 74% | inhibition [6]: 100% | residual activity [7]: 86% | inhibition [8]: 100% | inhibition [9]: 100% | inhibition [10]: 0.45% | residual activity [11]: 79% | inhibition [12]: 31% | inhibition [13]: 100% | residual activity [14]: 94% | inhibition [15]: 7.5% | residual activity [16]: 16% | inhibition [17]: 100% | residual activity [18]: 99% | inhibition [19]: 47% | inhibition [20]: 100% | inhibition [21]: 100% | inhibition [22]: 100% | inhibition [23]: 79% | inhibition [24]: 51% | inhibition [25]: 100% | inhibition [26]: 100% | residual activity [27]: 99% | inhibition [28]: 84%

COc1cc(C(=O)N2CCC(N3CCN(C)CC3)CC2)ccc1Nc1ncc2c(n1)N(C1CCCC1)c1ccccc1C(=O)N2C
inhibition [29]: -0.1%

Source: ChEMBL document CHEMBL5678810
